Experimental data from PubChem BioAssay AID192 (DTP/NCI, 2004).
Values joined by “and” are separate entries in the source; they are usually repeats but may differ in a detail not shown here. Equal entries are not always repeated. Toxic doses and inconclusive results are not listed. Rule for the calls: active = survival T/C of 150% or more; inactive = T/C below 125% in these data. Peptide text beside a SMILES is read from it. * marks the point of attachment. Cbz = O=C(OCc1ccccc1)*; CH2Cl = ClC*

Test system: BDF1 mice, B16 melanoma ip, median survival T/C
Experiment: NCI In Vivo Anticancer Drug Screen. Data for tumor model B16 Melanoma (intraperitoneal) in B6D2F1 (BDF1) mice
Conditions: endpoint: median survival time, higher = longer survival
Outline: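 Survival or tumor size is measured after treatment of tumor-bearing mice and normalised to the vehicle-treated control group.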

[1] = dose: 50.0 mg/kg/injection, schedule: Q01DX009 (ip), vehicle: Klucel (hydroxypropylcellulose) (HPC)
[2] = dose: 100.0 mg/kg/injection, schedule: Q01DX009 (ip), vehicle: Klucel (hydroxypropylcellulose) (HPC)
[3] = dose: 200.0 mg/kg/injection, schedule: Q01DX009 (ip), vehicle: Klucel (hydroxypropylcellulose) (HPC)
[4] = dose: 12.5 mg/kg/injection, schedule: Q01DX009 (ip), vehicle: saline with Tween-80
[5] = dose: 25.0 mg/kg/injection, schedule: Q01DX009 (ip), vehicle: saline with Tween-80
[6] = dose: 50.0 mg/kg/injection, schedule: Q01DX009 (ip), vehicle: saline with Tween-80
[7] = dose: 100.0 mg/kg/injection, schedule: Q01DX009 (ip), vehicle: saline with Tween-80
[8] = dose: 400.0 mg/kg/injection, schedule: Q01DX009 (ip), vehicle: Klucel (hydroxypropylcellulose) (HPC)
[9] = dose: 37.5 mg/kg/injection, schedule: Q01DX009 (ip), vehicle: Klucel (hydroxypropylcellulose) (HPC)
[10] = dose: 75.0 mg/kg/injection, schedule: Q01DX009 (ip), vehicle: Klucel (hydroxypropylcellulose) (HPC)
[11] = dose: 12.5 mg/kg/injection, schedule: Q01DX009 (ip), vehicle: saline
[12] = dose: 25.0 mg/kg/injection, schedule: Q01DX009 (ip), vehicle: saline
[13] = dose: 50.0 mg/kg/injection, schedule: Q01DX009 (ip), vehicle: saline
[14] = dose: 200.0 mg/kg/injection, schedule: Q01DX009 (ip), vehicle: saline with Tween-80
[15] = dose: 100.0 mg/kg/injection, schedule: Q01DX009 (ip), vehicle: saline
[16] = dose: 3.12 mg/kg/injection, schedule: Q01DX009 (ip), vehicle: saline
[17] = dose: 6.25 mg/kg/injection, schedule: Q01DX009 (ip), vehicle: saline
[18] = dose: 6.25 mg/kg/injection, schedule: Q01DX009 (ip), vehicle: saline with Tween-80

Measured: T/C

CC(=O)[C@H]1CC[C@H]2[C@@H]3CCC4=CC(=O)CC[C@]4(C)[C@H]3CC[C@]12C
inactive: dose: 12.5 mg/kg/injection, schedule: Q02DX009 (ip), vehicle: Klucel (hydroxypropylcellulose) (HPC) 104 % of control | dose: 25.0 mg/kg/injection, schedule: Q02DX009 (ip), vehicle: Klucel (hydroxypropylcellulose) (HPC) 96 % of control | dose: 50.0 mg/kg/injection, schedule: Q02DX009 (ip), vehicle: Klucel (hydroxypropylcellulose) (HPC) 100 % of control | dose: 100.0 mg/kg/injection, schedule: Q02DX009 (ip), vehicle: Klucel (hydroxypropylcellulose) (HPC) 91 % of control | dose: 200.0 mg/kg/injection, schedule: Q02DX009 (ip), vehicle: Klucel (hydroxypropylcellulose) (HPC) 120 % of control | dose: 400.0 mg/kg/injection, schedule: Q02DX009 (ip), vehicle: Klucel (hydroxypropylcellulose) (HPC) 104 % of control

ClC(Cl)(Cl)c1ccc(C(Cl)(Cl)Cl)cc1
inactive: dose: 50.0 mg/kg/injection, schedule: Q04DX003 (ip), vehicle: saline 102 % of control | dose: 100.0 mg/kg/injection, schedule: Q04DX003 (ip), vehicle: saline 95 % of control | dose: 200.0 mg/kg/injection, schedule: Q04DX003 (ip), vehicle: saline 95 % of control

Cc1cnc2c(N)[nH]nc2n1
inactive: [1] 97 % of control | [2] 106 % of control | [3] 107 % of control

Oc1cc2ccccc2c(-c2c(O)c(O)cc3ccccc23)c1O
inactive: [4] 114 % of control | [5] 117 % of control | [6] 117 % of control | [7] 110 % of control

CCCCCc1cc(/C=C2/N=C(c3ccc[nH]3)C=C2OC)[nH]c1C
inactive: dose: 0.25 mg/kg/injection, schedule: Q01DX009 (ip), vehicle: saline with Tween-80 98 % of control | dose: 0.5 mg/kg/injection, schedule: Q01DX009 (ip), vehicle: saline with Tween-80 100 % of control | dose: 1.0 mg/kg/injection, schedule: Q01DX009 (ip), vehicle: saline with Tween-80 102 % of control | dose: 2.0 mg/kg/injection, schedule: Q01DX009 (ip), vehicle: saline with Tween-80 107 % of control | dose: 4.0 mg/kg/injection, schedule: Q01DX009 (ip), vehicle: saline with Tween-80 110 % of control

NCOC(=O)Cc1ccc(Br)cc1
inactive: [2] 97 % of control | [3] 97 % of control | [8] 89 % of control

Cc1cc(Cl)ccc1NC(=O)Nc1ccccc1Cl
inactive: dose: 18.8 mg/kg/injection, schedule: Q01DX009 (ip), vehicle: Klucel (hydroxypropylcellulose) (HPC) 104 % of control | [9] 91 % of control | [10] 94 % of control

COc1cccc(CC(C)[N+](=O)[O-])c1 (centres undefined)
inactive: dose: 45.0 mg/kg/injection, schedule: Q01DX009 (ip), vehicle: saline with Tween-80 109 % of control | dose: 90.0 mg/kg/injection, schedule: Q01DX009 (ip), vehicle: saline with Tween-80 100 % of control | dose: 180.0 mg/kg/injection, schedule: Q01DX009 (ip), vehicle: saline with Tween-80 86 % of control

NCC(c1ccccc1)c1ccccc1
inactive: [11] 100 % of control | [12] 91 % of control | [13] 91 % of control

CCOC(=O)CCOc1ccc(Cl)cc1
inactive: [7] 101 % of control | [14] 102 % of control | dose: 400.0 mg/kg/injection, schedule: Q01DX009 (ip), vehicle: saline with Tween-80 96 % of control

O=C(O)/C(=C\c1ccc(Cl)cc1)c1ccc(Cl)cc1
inactive: [9] 87 % of control | [10] 92 % of control | dose: 150.0 mg/kg/injection, schedule: Q01DX009 (ip), vehicle: Klucel (hydroxypropylcellulose) (HPC) 93 % of control

COC1/C=C\C=C(/C)C(=O)Nc2cc3nc4cccc(Br)c4oc-3c(c2=O)CC(C)CC(OC)C(O)C(C)/C=C(\C)C1OC(N)=O (centres undefined)
inactive: dose: 12.5 mg/kg/injection, schedule: Q01DX005 (ip), vehicle: other 103 % of control | dose: 25.0 mg/kg/injection, schedule: Q01DX005 (ip), vehicle: other 98 % of control | dose: 50.0 mg/kg/injection, schedule: Q01DX005 (ip), vehicle: other 108 % of control | dose: 100.0 mg/kg/injection, schedule: Q01DX005 (ip), vehicle: other 107 % of control | dose: 200.0 mg/kg/injection, schedule: Q01DX005 (ip), vehicle: other 94 % of control

COc1ccc(-c2cc(=O)c3c(ccc4ccccc43)o2)cc1
inactive: [2] 94 % of control | [3] 100 % of control | [8] 102 % of control

N=C(N)SCc1cccc2c(=O)cc(-c3ccccc3)oc12
inactive: [13] 101 % of control | [15] 111 % of control | dose: 200.0 mg/kg/injection, schedule: Q01DX009 (ip), vehicle: saline 86 % of control

C[N+](C)(C)CC(=O)[O-]
inactive: [13] 108 % of control | [15] 101 % of control

Cc1ccc(S(=O)(=O)Oc2ccc(-c3ccc(OS(=O)(=O)c4ccc(C)cc4)cc3)cc2)cc1
inactive: [6] 105 % of control | [7] 90 % of control

CNC(C)CC1CCCCC1 (centres undefined)
inactive: [16] 100 % of control | [17] 100 % of control | [11] 100 % of control | [12] 95 % of control

O=C(NC(Cc1ccccc1)C(=O)NC(Cc1c[nH]c2ccccc12)C(=O)O)OCc1ccccc1 (centres undefined)
inactive: [6] 98 % of control | [7] 100 % of control | [14] 94 % of control

O=C1NC2(CCCCC2)NC12CCCCC2
inactive: [12] 102 % of control | [13] 97 % of control | [15] 97 % of control | dose: 150.0 mg/kg/injection, schedule: Q01DX009 (ip), vehicle: saline 94 % of control | dose: 225.0 mg/kg/injection, schedule: Q01DX009 (ip), vehicle: saline 86 % of control

CC(C)CC(NC(=O)OCc1ccccc1)C(=O)NC(Cc1ccccc1)C(=O)CCl (stereo not drawn) (Cbz-Leu-Phe-CH2Cl; configuration not given here)
inactive: dose: 1.56 mg/kg/injection, schedule: Q01DX009 (ip), vehicle: saline 99 % of control | [16] 99 % of control | [17] 97 % of control

CSc1ccc(NC(=O)CCl)cc1
inactive: [4] 95 % of control | [5] 105 % of control | [6] 96 % of control

C1CC2CCC3CCCC4CCC(C1)C2C34 (centres undefined)
inactive: dose: 3.13 mg/kg/injection, schedule: Q01DX009 (ip), vehicle: saline with Tween-80 95 % of control | [18] 89 % of control

CC/C(=C(/CC)c1ccc(O)cc1)c1ccc(O)cc1
inactive: [18] 89 % of control | [4] 89 % of control | [5] 89 % of control and 102 % of control | [6] 100 % of control | [14] 97 % of control

CC1C2CCC3C(O)C2(CC(O)C2(O)C1CC(O)C2(C)C)CC3(C)O (centres undefined)
inactive: dose: 0.25 mg/kg/injection, schedule: Q01DX009 (ip), vehicle: Klucel (hydroxypropylcellulose) (HPC) 103 % of control | dose: 0.5 mg/kg/injection, schedule: Q01DX009 (ip), vehicle: Klucel (hydroxypropylcellulose) (HPC) 103 % of control

CC(=Nc1ccccc1)C1=C(O)C(Cc2ccc(O)cc2)NC1=O (centres undefined)
inactive: [4] 111 % of control

Cc1ccc(NC(=O)c2ccc([N+](=O)[O-])cc2)cc1Cl
inactive: dose: 25.0 mg/kg/injection, schedule: Q01DX009 (ip), vehicle: Klucel (hydroxypropylcellulose) (HPC) 109 % of control | [1] 99 % of control | [2] 99 % of control

O=C(Nc1ccccc1F)C(c1ccccc1)c1ccccc1
inactive: [4] 101 % of control | [5] 95 % of control | [6] 95 % of control | [3] 86 % of control
